Test system: pea plants cv. 'Carneval'
Assay: Growth chamber experiment 2, pea 'Carneval' sprayed with 4-ME-IAA: peduncle/pedicel growth and seed yield, with or without heat stress (Tables P3-P12)
Format: in vivo, Pisum sativum L.
Protocol: For growth chamber experiment, seeds of ‘Carneval’ were planted at an approximate depth of 2.5 cm in 3-L plastic pots (4 seeds per pot and thinned to 2 plants per pot after approximately 2 weeks) in 1:1 Sunshine #4 potting mix (Sun Gro Horticulture, Vancouver, Canada) and sand. The experiment was arranged in a completely randomized design and grown at the University of Alberta in a growth chamber set at 19° C./17° C. (day/night) with a 16/8-h photoperiod under cool-white fluorescent lights (54W/835/HO high fluorescent bulbs, Phillips, Holland; 350 μE m^2 s^−2). For the heat stress treatment, plants were placed in a separate growth chamber with a 16/8-h photoperiod under cool-white fluorescent lights (F54/15/835/HO high fluorescent bulbs, Phillips, Holland) for 4 days where the temperature was cycled over a 24 hr period as follows: 33° C. air temperature for 6 hours per day (between 11:00 and 17:00 hrs) for 4 days during the light cycle; the remainder of the light cycle was maintained at a 22° C. air temperature; the dark cycle was maintained at 19° C. After the 4 day heat treatment, the plants were returned to the same growth chamber they were originally grown in, where they were taken to maturity.
For experiment 2, aqueous 4-methyl-indole-3-acetic acid (4-ME-IAA) solutions at 1×10^−7, 1×10^−6, 1×10^−5, or 1×10^−4 M in 0.1% (v/v) Tween 80 or aqueous 0.1% (v/v) Tween 80 (control) were applied as a spray to the entire plant to cover when the first flowering node of the main stem was near or at anthesis. In addition to the application at the timing cited above, one application of 4-ME-IAA at 1×10^−6 M or 1×10^−5 M was made when the floral buds were tightly clustered inside the stipule leaves at the stem apex (floral buds not visible outside of stipule leaves; designated the ‘Early’ treatment). In the heat stress treatment, the hormone or control treatment application was completed 16 hrs prior to the initiation of the first heat-stress cycle. The length and diameter (measured mid-length) of the lower and upper peduncles and pedicels of the inflorescence with two pods (or the lower peduncle and pedicel if a single pod node) at the first, second, third and fourth flowering nodes of the main stem of pea plants were determined for hormone-treated and control plants. Standard error of the mean (SE) was calculated for the means of all data for a measure of statistical significance in comparing treatment means.

[1] = 1×10^−6 M, first flowering node, heat stress (33° C. 6 h/day, 4 days)
[2] = 1×10^−6 M, first flowering node, no heat stress
[3] = 1×10^−6 M, fourth flowering node, heat stress (33° C. 6 h/day, 4 days)
[4] = 1×10^−6 M, fourth flowering node, no heat stress
[5] = 1×10^−6 M, heat stress (33° C. 6 h/day, 4 days)
[6] = 1×10^−6 M, second flowering node, heat stress (33° C. 6 h/day, 4 days)
[7] = 1×10^−6 M, second flowering node, no heat stress
[8] = 1×10^−6 M, third flowering node, heat stress (33° C. 6 h/day, 4 days)
[9] = 1×10^−6 M, third flowering node, no heat stress
[10] = 1×10^−7 M, applied near or at anthesis, no heat stress
[11] = 1×10^−7 M, first flowering node, heat stress (33° C. 6 h/day, 4 days)
[12] = 1×10^−7 M, first flowering node, no heat stress
[13] = 1×10^−7 M, fourth flowering node, heat stress (33° C. 6 h/day, 4 days)
[14] = 1×10^−7 M, fourth flowering node, no heat stress
[15] = 1×10^−7 M, heat stress (33° C. 6 h/day, 4 days)
[16] = 1×10^−7 M, second flowering node, heat stress (33° C. 6 h/day, 4 days)
[17] = 1×10^−7 M, second flowering node, no heat stress
[18] = 1×10^−7 M, third flowering node, heat stress (33° C. 6 h/day, 4 days)
[19] = 1×10^−7 M, third flowering node, no heat stress
[20] = Early treatment (tight floral bud stage) 1×10^−5 M, no heat stress
[21] = Early treatment (tight floral bud stage) 1×10^−6 M, no heat stress

Structure (SMILES): Cc1cccc2[nH]cc(CC(=O)O)c12 [4-ME-IAA, 4-methyl-indole-3-acetic acid]
- Lower Peduncle diameter [1]: 1.38 ± 0.08 mm
- Upper Pedicel Length [1]: 8.29 ± 0.18 mm
- Upper Pedicel diameter [1]: 1.43 ± 0.06 mm
- Upper Peduncle Length [1]: 16.71 ± 1.55 mm
- Upper Peduncle diameter [1]: 1.19 ± 0.07 mm
- Lower Pedicel Length [2]: 9.40 ± 0.27 mm
- Lower Pedicel diameter [2]: 1.70 ± 0.04 mm
- Lower Peduncle Length [2]: 75.00 ± 4.00 mm
- Lower Peduncle diameter [2]: 1.65 ± 0.03 mm
- Upper Pedicel Length [2]: 9.40 ± 0.27 mm
- Upper Pedicel diameter [2]: 1.54 ± 0.04 mm
- Upper Peduncle Length [2]: 20.30 ± 1.54 mm
- Upper Peduncle diameter [2]: 1.37 ± 0.05 mm
- Lower Pedicel Length [3]: 7.40 ± 0.24 mm
- Lower Pedicel diameter [3]: 1.49 ± 0.11 mm
- Lower Peduncle Length [3]: 26.80 ± 4.55 mm
- Lower Peduncle diameter [3]: 1.25 ± 0.06 mm
- Upper Pedicel Length [3]: 8.00 mm
- Upper Pedicel diameter [3]: 1.46 mm
- Upper Peduncle Length [3]: 15.00 mm
- Upper Peduncle diameter [3]: 1.33 mm
- Lower Pedicel Length [4]: 8.80 ± 0.25 mm
- Lower Pedicel diameter [4]: 1.34 ± 0.03 mm
- Lower Peduncle Length [4]: 38.00 ± 3.63 mm
- Lower Peduncle diameter [4]: 1.38 ± 0.05 mm
- Upper Pedicel Length [4]: 8.33 ± 0.29 mm
- Upper Pedicel diameter [4]: 1.24 ± 0.05 mm
- Upper Peduncle Length [4]: 16.67 ± 0.69 mm
- Upper Peduncle diameter [4]: 1.16 ± 0.03 mm
- Ratio of seed number on main stem to lateral stems [5]: 2.0 ± 0.5
- Seed number plant [5]: 46.8 ± 3.3
- Seed weight per per plant [5]: 12.9 ± 0.9 g
- Weight per seed [5]: 0.277 ± 0.005 g
- Lower Pedicel Length [6]: 8.80 ± 0.36 mm
- Lower Pedicel diameter [6]: 1.47 ± 0.05 mm
- Lower Peduncle Length [6]: 47.10 ± 3.42 mm
- Lower Peduncle diameter [6]: 1.28 ± 0.06 mm
- Upper Pedicel Length [6]: 8.14 ± 0.14 mm
- Upper Pedicel diameter [6]: 1.43 ± 0.04 mm
- Upper Peduncle Length [6]: 16.86 ± 1.01 mm
- Upper Peduncle diameter [6]: 1.20 ± 0.07 mm
- Lower Pedicel Length [7]: 9.4 ± 0.27 mm
- Lower Pedicel diameter [7]: 1.51 ± 0.04 mm
- Lower Peduncle Length [7]: 58.20 ± 5.41 mm
- Lower Peduncle diameter [7]: 1.51 ± 0.04 mm
- Upper Pedicel Length [7]: 9.20 ± 0.33 mm
- Upper Pedicel diameter [7]: 1.47 ± 0.04 mm
- Upper Peduncle Length [7]: 19.00 ± 0.60 mm
- Upper Peduncle diameter [7]: 1.26 ± 0.02 mm
- Lower Pedicel Length [8]: 7.90 ± 0.28 mm
- Lower Pedicel diameter [8]: 1.43 ± 0.05 mm
- Lower Peduncle Length [8]: 34.50 ± 2.73 mm
- Lower Peduncle diameter [8]: 1.33 ± 0.05 mm
- Upper Pedicel Length [8]: 8.60 ± 0.24 mm
- Upper Pedicel diameter [8]: 1.34 ± 0.04 mm
- Upper Peduncle Length [8]: 15.80 ± 1.11 mm
- Upper Peduncle diameter [8]: 1.17 ± 0.03 mm
- Lower Pedicel Length [9]: 9.00 ± 0.30 mm
- Lower Pedicel diameter [9]: 1.39 ± 0.04 mm
- Lower Peduncle Length [9]: 45.90 ± 4.3 mm
- Lower Peduncle diameter [9]: 1.49 ± 0.04 mm
- Upper Pedicel Length [9]: 9.00 ± 0.29 mm
- Upper Pedicel diameter [9]: 1.31 ± 0.04 mm
- Upper Peduncle Length [9]: 18.00 ± 0.96 mm
- Upper Peduncle diameter [9]: 1.17 ± 0.02 mm
- Ratio of seed number on main stem to lateral stems [10]: 3.0 ± 0.4
- Seed number per plant [10]: 63.5 ± 6.8
- Seed weight per plant [10]: 15.5 ± 1.6 g
- Weight per seed [10]: 0.245 ± 0.004 g
- increase in seed yield (seed weight per plant) vs control [10]: 78%
- Lower Pedicel Length [11]: 9.40 ± 0.34 mm
- Lower Pedicel diameter [11]: 1.73 ± 0.04 mm
- Lower Peduncle Length [11]: 68.40 ± 5.39 mm
- Lower Peduncle diameter [11]: 1.72 ± 0.05 mm
- Upper Pedicel Length [11]: 9.00 ± 0.37 mm
- Upper Pedicel diameter [11]: 1.67 ± 0.06 mm
- Upper Peduncle Length [11]: 18.11 ± 0.59 mm
- Upper Peduncle diameter [11]: 1.45 ± 0.08 mm
- Lower Pedicel Length [12]: 9.30 ± 0.26 mm
- Lower Pedicel diameter [12]: 1.65 ± 0.04 mm
- Lower Peduncle Length [12]: 67.10 ± 5.30 mm
- Lower Peduncle diameter [12]: 1.59 ± 0.04 mm
- Upper Pedicel Length [12]: 9.20 ± 0.20 mm
- Upper Pedicel diameter [12]: 1.52 ± 0.03 mm
- Upper Peduncle Length [12]: 19.80 ± 1.08 mm
- Upper Peduncle diameter [12]: 1.27 ± 0.05 mm
- Lower Pedicel Length [13]: 7.50 ± 0.56 mm
- Lower Pedicel diameter [13]: 1.49 ± 0.05 mm
- Lower Peduncle Length [13]: 38.67 ± 3.18 mm
- Lower Peduncle diameter [13]: 1.58 ± 0.06 mm
- Upper Pedicel Length [13]: 8.00 ± 0.58 mm
- Upper Pedicel diameter [13]: 1.39 ± 0.15 mm
- Upper Peduncle Length [13]: 17.00 ± 1.00 mm
- Upper Peduncle diameter [13]: 1.30 ± 0.06 mm
- Lower Pedicel Length [14]: 9.57 ± 0.37 mm
- Lower Pedicel diameter [14]: 1.37 ± 0.03 mm
- Lower Peduncle Length [14]: 44.00 ± 3.22 mm
- Lower Peduncle diameter [14]: 1.37 ± 0.03 mm
- Upper Pedicel Length [14]: 8.86 ± 0.55 mm
- Upper Pedicel diameter [14]: 1.25 ± 0.04 mm
- Upper Peduncle Length [14]: 18.57 ± 0.61 mm
- Upper Peduncle diameter [14]: 1.12 ± 0.03 mm
- Ratio of seed number on main stem to lateral stems [15]: 1.2 ± 0.2
- Seed number plant [15]: 55.9 ± 5.9
- Seed weight per per plant [15]: 15.3 ± 1.7 g
- Weight per seed [15]: 0.273 ± 0.010 g
- increase in seed number per plant over control (1×10^−7 M, mild heat stress): 30%
- increase in seed weight per plant over control (1×10^−7 M, mild heat stress): 29%
- Lower Pedicel Length [16]: 8.78 ± 0.28 mm
- Lower Pedicel diameter [16]: 1.69 ± 0.06 mm
- Lower Peduncle Length [16]: 62.00 ± 2.88 mm
- Lower Peduncle diameter [16]: 1.69 ± 0.05 mm
- Upper Pedicel Length [16]: 8.50 ± 0.22 mm
- Upper Pedicel diameter [16]: 1.55 ± 0.07 mm
- Upper Peduncle Length [16]: 17.00 ± 0.73 mm
- Upper Peduncle diameter [16]: 1.41 ± 0.05 mm
- Lower Pedicel Length [17]: 9.3 ± 0.30 mm
- Lower Pedicel diameter [17]: 1.57 ± 0.05 mm
- Lower Peduncle Length [17]: 55.80 ± 4.61 mm
- Lower Peduncle diameter [17]: 1.57 ± 0.03 mm
- Upper Pedicel Length [17]: 9.20 ± 0.29 mm
- Upper Pedicel diameter [17]: 1.48 ± 0.04 mm
- Upper Peduncle Length [17]: 19.00 ± 0.76 mm
- Upper Peduncle diameter [17]: 1.25 ± 0.02 mm
- Lower Pedicel Length [18]: 8.13 ± 0.40 mm
- Lower Pedicel diameter [18]: 1.70 ± 0.06 mm
- Lower Peduncle Length [18]: 46.13 ± 2.75 mm
- Lower Peduncle diameter [18]: 1.61 ± 0.06 mm
- Upper Pedicel Length [18]: 8.20 ± 0.37 mm
- Upper Pedicel diameter [18]: 1.46 ± 0.11 mm
- Upper Peduncle Length [18]: 18.60 ± 0.98 mm
- Upper Peduncle diameter [18]: 1.31 ± 0.07 mm
- Lower Pedicel Length [19]: 9.44 ± 0.18 mm
- Lower Pedicel diameter [19]: 1.46 ± 0.04 mm
- Lower Peduncle Length [19]: 48.44 ± 2.5 mm
- Lower Peduncle diameter [19]: 1.42 ± 0.05 mm
- Upper Pedicel Length [19]: 9.00 ± 0.33 mm
- Upper Pedicel diameter [19]: 1.26 ± 0.05 mm
- Upper Peduncle Length [19]: 18.38 ± 1.10 mm
- Upper Peduncle diameter [19]: 1.07 ± 0.03 mm
- number of inflorescences with two pods at the fourth flowering node (1×10^−7 to 1×10^−4 M, no heat stress, control 10%): 70-90 % of the plants
- number of inflorescences with 2 pods at the third flowering node (1×10^−7 to 1×10^−4 M, no heat stress, control 20%): 80-100 % of the plants
- increase in seed yield vs control ('Early' treatment 1×10^−6 M): 109%
- Ratio of seed number on main stem to lateral stems [20]: 1.5 ± 0.2
- Seed number per plant [20]: 64.8 ± 5.2
- Seed weight per plant [20]: 16.2 ± 1.3 g
- Weight per seed [20]: 0.252 ± 0.006 g
- Ratio of seed number on main stem to lateral stems [21]: 1.6 ± 0.1
- Seed number per plant [21]: 73.8 ± 5.9
- Seed weight per plant [21]: 18.2 ± 1.4 g
- Weight per seed [21]: 0.248 ± 0.006 g
